Consider two compounds from patent US20170248616A1, “IN VITRO COMPOSITIONS COMPRISING HUMAN SAMPLE AND AMYLOID TARGETING AGENT” (Amydis Diagnostics, Inc., priority 2014, published 2017).

The experiment has as its target T1, amyloid deposits in hippocampal brain sections (Homo sapiens, UniProt P05067).
T1 construct: from tissue; host or cells: hippocampal brain sections of a mouse model for Alzheimer's disease
The experiment is described as follows: Fluorescence labeling of amyloid deposits in hippocampal brain sections from a mouse model for Alzheimer's disease. The following applies: excitation wavelength 488 nm; fluorescence micrographs. The source says: An excitation wavelength of 488 nm was used to excite the fluorophores. FIG. 13. […] An excitation wavelength of 488 nm was used to excite the fluorophores.

T1 sequence (P05067 672-713 limits assumed): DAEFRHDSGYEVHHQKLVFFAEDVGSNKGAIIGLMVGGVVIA

Turning to `COCCOCCOCCNC(=O)/C(C#N)=C/c1ccc2cc(N3CCCCC3)ccc2c1` [Compound 1, 2-cyano-N-(2-(2-(2-methoxyethoxy)ethoxy)ethyl)-3-(6-(piperidin-1-yl)naphthalen-2-yl)acrylamide], the “fluorescence labeling of amyloid deposits” value was “fluorescence labeling of amyloid deposits”. Take `COCCOCCOCCNS(=O)(=O)/C(C#N)=C/c1ccc2cc(N3CCCCC3)ccc2c1` [Compound 2, 1-cyano-N-(2-(2-(2-methoxyethoxy)ethoxy)ethyl)-2-(6-(piperidin-1-yl)naphthalen-2-yl)ethenesulfonamide]: the “fluorescence labeling of amyloid deposits” value is recorded as “fluorescence labeling of amyloid deposits”.
